For data set [1], the system named is skin above the upper lip. The data set is described as follows: Cooling sensation on facial skin, ointment applied to skin above the upper lip. Further details: key to refreshing cooling and absence of skin irritation or eye irritation (“perfect cool”): (*) denotes compounds with refreshing cooling and absence of skin irritation or eye irritation after facial skin or periorbital applications; a “perfect cool.”. The conditions noted are these: for Duration of Skin Cooling: 40 mM (1% wt/vol) ointment; for Duration of Skin Cooling / Duration of Action On-Off (minutes): On (onset) / Duration of Action On-Off (minutes): duration (offset minus onset) / Duration of Action On-Off (minutes): Off (offset): skin above upper lip; for Duration of Action On-Off (minutes): On (onset): 40 mM (~1% wt/vol) Aquaphor ointment, 40 to 70 mg, time to reach 2 units of coolness; for Duration of Action On-Off (minutes): duration (offset minus onset) / Duration of Action On-Off (minutes): Off (offset): 40 mM Aquaphor ointment; for Duration of Action On-Off (minutes): Off (offset): time when coolness drops below 2 units; for refreshing cooling and absence of skin irritation or eye irritation (“perfect cool”): after facial skin or periorbital applications. Format: in vivo, human. An excerpt: A reliable place for topical application is the skin above the upper lip (above the vermilion border of the lips), on the philtrum, lateral to the philtrum until the nasolabial folds, and on the lower nostrils (subnasale). This part of the face is known to be densely innervated with cold receptors, second only to the surfaces of the eyeball and anogenitalia. A second location is on or below the malar eminence (cheekbone). The skin above the cheekbone is thicker than above the lips, and therefore has a higher threshold for activation. At both loci, tingling, cool and cold sensations in the skin may be experienced and rated for time of onset and intensity.
The intensity of the subjective skin sensation is rated as 0, 1, 2 or 3 with: 0 as no change; 1 as slight coolness, cold, or tingling; 2 as clear-cut signal of coolness, cold, or tingling; and 3 as robust cooling or cold. The intervals for recording sensations are 5 to 10 minutes, until two successive zeroes are obtained. The results (shown in FIGS. 1 and 2) are averaged values of 4 to 6 separate trials in the same individual. The data are plotted using SigmaPlot® (Systat Software, Point Richmond Calif.) and a smoothing function with a negative exponential was used for analysis and statistical fit of the results. Confirmatory trials of cooling action of the long-acting NACE compounds were obtained in 2 to 4 individuals but not quantified for some because of the large number of chemicals that were evaluated.
The onset of drug action is taken as the time to reach 2 units of coolness intensity, and offset of drug action is the time when coolness intensity drops below 2, after previously surpassing 2 units. The duration of cooling action is defined as the offset time minus the onset time. […] The quality of the sensation is noted, for example, as pure refreshing coolness, or if the sensation is accompanied by irritation (stinging or burning). The quality of the sensation is not rated for intensity.
For bioassay on the skin, approximately 30 mg was stirred and dissolved in 3 g of warm liquid Aquaphor® ointment to a yield a 40 mM (˜1% wt/vol) ointment. The exact amount was adjusted so that the molar equivalent was about 35 to 40 mM. After cooling, 40 to 70 mg of the solid ointment was placed on the tip of a plastic stick and applied to the skin above the upper lip, on the philtrum, and lateral to the philtrum, up to the nasolabial folds, of test subjects and the onset and duration of cooling sensations noted.
The intensity of the subjective skin sensation was rated as 0, 1, 2 or 3 with: 0 as no change; 1 as slight coolness, cold, or tingling; 2 as clear signal of coolness, cold, or tingling; and 3 as robust cooling or cold. The intervals for recording sensations were 5 to 10 minutes, until two successive zeroes were obtained. The results (shown in FIGS. 1 and 2) are averaged values of 4 to 6 separate trials in the same individual. The data are plotted using SigmaPlot® (Systat Software, Point Richmond, Calif., USA) and a smoothing function with a negative exponential was used for analysis and statistical fit of the results.
The onset of drug action was taken as the time to reach 2 units of coolness intensity, and offset of drug action was the time when coolness intensity drops below 2, after previously surpassing 2 units. The duration of cooling action was defined as the offset time minus the onset time. […] The quality of the sensation was also noted: such as pure refreshing coolness, or if the sensation was accompanied by irritation (stinging or burning). The quality of the sensation was not rated for intensity.
Test compounds were singly applied to the skin above the upper lips at a 40 to 70 mg dose of a 1% wt/vol ointment.

Data set [2] concerns oral cavity. Briefly: Oral cavity test, substance placed on dorsal surface of the tongue. Format: in vivo, human. The note with it: for sensory irritation in the mouth: Study 7, same test conditions. How it is done:
The subject is instructed to close and hold the substance in the mouth for at least 10 seconds and not to swallow. The description of sensations is then recorded at 5 minute intervals.
The compounds of Formula (1) and (2) are white crystalline solids at room temperatures. These compounds were tested as such, or mixed 1:1 with powdered or granulated sugar. The test substances were applied at 1 to 5 mg on the mid-point of the dorsal surface of the tongue using a metal spatula or a plastic applicator. After depositing the test substance on the tongue, the subject was instructed to keep the mouth closed and allow the fluids of the mouth to inter-mix with the test substance and to distribute it to the back of the mouth (oropharynx). The presence and duration of subjective sensations from the mouth was then noted.
In normal subjects, the effects of the D-Ala methyl and ethyl ester compounds falling within Formula (1) ((R)-2-[((1R,2S,5R)-2-isopropyl-5-methyl-cyclohexanecarbonyl)-amino]-propionic acid methyl or ethyl ester)) were examined. Three doses of 1, 2 and 4 mg per application were examined and compared to a similar dose of the L-Ala methyl or ester analog ((S)-2-[((1R,2S,5R)-2-isopropyl-5-methyl-cyclohexanecarbonyl)-amino]-propionic acid methyl or ethyl ester). At the 2 or 4 mg dose, all compounds produced pleasant and robust cooling sensations on the tongue, extending down to the back of throat, and lasted for about 30 minutes and longer. The onset effect was usually within 30 seconds of application.

Data set [3] in a line: Octanol/water partition coefficient. It is filed as physicochemical. How it is done: The octanol/water partition coefficients (given in log P units) for a number of compounds were determined and are shown in Table 7, together with the threshold for cooling on the tongue tested at 40 mM. […] A longer duration of action was not precisely matched with log P values.
For data set [4], the system named is tongue. The data set is described as follows: Threshold for cooling on the tongue. Format: in vivo, human. The note with it: for Threshold tongue: threshold for cooling on the tongue. On the procedure: Watson et al. (U.S. Pat. No. 4,178,459) tested the properties of N-substituted p-menthane carboxamides on volunteers by putting filter paper (1×1 cm), impregnated with a known amount of compound, onto the dorsal surface of the tongue of the test subject. After 30 seconds, the subject was required to report presence or absence of a cooling effect. […] The average threshold of (−)-menthol for 6 subjects was 0.25 μg, but there was a 100-fold variation in individual sensitivity. As noted above, coolness signals detected from the dorsal surface of the tongue may be confounded by gustatory, olfactory, and other variables, as well as by dilution from saliva. The octanol/water partition coefficients (given in log P units) for a number of compounds were determined and are shown in Table 7, together with the threshold for cooling on the tongue tested at 40 mM. […] A longer duration of action was not precisely matched with log P values.

Data set [5] deals with periorbital area. Briefly: Study 4: 1% ointment applied bilaterally to the periorbital area. Format: in vivo, human. The conditions noted are these: periorbital application. An excerpt: A 1% preparation of 2-isopropyl-5-methyl-cyclohexanecarbonyl D-alanine methyl ester in Aquaphor® ointment was applied bilaterally to the periorbital area of four individuals. […] This alerting effect lasted for about one hour. This experiment was then repeated three days later in the evening with the same individuals whose occupations required daylong activities before a computer screen. Again, application of the ointment about the periorbital area was reported to relieve fatigue, enhance visual acuity, and to increase attention span and focus. Sensations of refreshment and improved mood were also noted.

Structures are written as SMILES.

As usually defined, the logP is the decadic logarithm of the partition coefficient of the neutral form, usually between octanol and water. For `CCOC(=O)CNC(=O)[C@@H]1C[C@H](C)CC[C@H]1C(C)C` [Gly Et Ester (WS-5), N-p-menthanecarbonyl glycine ethyl ester, reference compound], in data set [1], the “Duration of Skin Cooling” value was 0.5 h, the “Duration of Action On-Off (minutes): On (onset)” value (from here on “Duration … (onset)”) amounted to 4 min, the “Duration of Action On-Off (minutes): duration (offset minus onset)” value (shortened to “Duration … (offset minus onset)”) turned out to be 33 min and the “Duration of Action On-Off (minutes): Off (offset)” value (shortened to “Duration … (offset)”) stood at 37 min. Also, the “refreshing cooling and absence of skin irritation or eye irritation (“perfect cool”)” value (“refreshing cooling and absence” below) in data set [1] is on record as “Gly Et Ester (WS-5) (*)”. The “sensory irritation in the mouth” value in data set [2] is given as “some sensory irritation”. In addition, in data set [3], the logP came to 2.9. For the same molecule, in data set [4], the Threshold tongue came out at 0.2 µg.
`CC(C)[C@@H]1CC[C@@H](C)C[C@H]1C(=O)N[C@H]1CCOC1=O` [L-Hsl, (1R,2S,5R)-2-isopropyl-5-methyl-cyclohexanecarboxylic acid (S)-(2-oxo-tetrahydro-furan-3-yl)-amide]: in data set [1], the “Duration of Skin Cooling” value came to 1.4 h, the “Duration … (onset)” value amounted to 2 min, the “Duration … (offset minus onset)” value came to 85 min and the “Duration … (offset)” value is 87 min. The “refreshing cooling and absence” value in data set [1] is on record as “L-Hsl (*)”. Besides, the “cooling sensation at the back of the throat” value in data set [2] (Study 7, 2 mg per dose) was “robust and prolonged cooling”. This molecule came in with a logP in data set [3] of 2.5.
The term Log P denotes a log measure of how a compound divides between an organic and an aqueous phase. Turning to `CCOC(=O)CN(C)C(=O)C1CC(C)CCC1C(C)C` (stereo not drawn) [Sar Et Ester], in data set [1], the “Duration of Skin Cooling” value worked out at 1.0 h, the “Duration … (onset)” value is 2 min, the “Duration … (offset minus onset)” value turned out to be 63 min and the “Duration … (offset)” value was found to be 65 min. For the same molecule, the “refreshing cooling and absence” value in data set [1] is on record as “Sar Et Ester (*)”. Further, in data set [1] (in vivo), the “duration of action relative to WS-11” value is “five”. For the same molecule, in data set [2], the “sensory irritation in the mouth” value is recorded as “some sensory irritation”. Also, the log partition coefficient (Log P) in data set [3] came to 2.9. Further, the “times less potent than WS-11 on the tongue threshold test” value in data set [4] (in vivo) worked out at 2.7 times. Moreover, in data set [4], the Threshold tongue was 0.8 µg.
For the molecule `CCNC(=O)C1CC(C)CCC1C(C)C` (stereo not drawn) [WS-3, reference compound], the “irritation of skin and eye surfaces” value in data set [5] was “significant skin and eye irritation”. Moreover, in data set [1], the “Duration … (onset)” value is 5 min and the “Duration … (offset)” value worked out at 23 min. Further, in data set [3], the “Log P” value was 3.7. Further, the Threshold tongue in data set [4] came to 0.2 µg.
Consider `CC1CCC(C(C)C)C(C(=O)NC(C)(C)CO)C1` (stereo not drawn) [WS-11, reference compound], for which the “irritation of skin and eye surfaces” value in data set [5] is “significant skin and eye irritation”. Besides, in data set [1], the “Duration of Skin Cooling” value was found to be 0.2 h, the “Duration … (onset)” value worked out at 8 min, the “Duration … (offset minus onset)” value was found to be 10 min and the “Duration … (offset)” value came out at 18 min. Further, the “Log P” value in data set [3] was determined as 2.9. In addition, the Threshold tongue in data set [4] stood at 0.3 µg.
As for `CC1CCC(C(C)C)C(C(=O)NC(C)(C)C)C1` (stereo not drawn) [WS-14, reference compound], the “irritation of skin and eye surfaces” value in data set [5] is “significant skin and eye irritation”. In data set [1], the “Duration of Skin Cooling” value came to 0.1 h, the “Duration … (onset)” value amounted to 15 min, the “Duration … (offset minus onset)” value was found to be 8 min and the “Duration … (offset)” value amounted to 23 min. The “Log P” value in data set [3] is 4.5. In data set [4], the Threshold tongue worked out at 0.4 µg.
As to `CNC(=O)C(C)(C(C)C)C(C)C` [WS-23, N-2,3-trimethyl-2-isopropylbutanamide, reference compound], the “irritation of skin and eye surfaces” value in data set [5] is “significant skin and eye irritation”.

Values taken from patent US20110160303A1, “N-ALKYLCARBONYL-AMINO ACID ESTER AND N-ALKYLCARBONYL-AMINO LACTONE COMPOUNDS AND THEIR USE” (Edward Tak WEI, priority 2005, published 2011).
